Experimental data taken from patent publication US9539260B2, “Dihydro-benzo-oxazine and dihydro-pyrido-oxazine derivatives” (Novartis AG, priority 2012, dated 2017).

Tests used:
[1] = target: PI3K delta (Homo sapiens (Human), UniProt O00329); test: Enzymatic PI3K delta isoform inhibition (lipid kinase activity, Kinase-Glo luminescence); assay type: biochemical; details: Enzymatic assay
Method in brief: (§1)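 IC50s derive from 4-parameter logistic fits of % inhibition across 8 concentrations (usually 10 to 0.003 μM). Lipid kinase reaction: PI3K (10 nM) plus phosphatidylinositol (5 μg/mL) started with 2 μM ATP, stopped near 50% ATP depletion; leftover ATP quantified by Kinase-Glo luminescence.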

[2] = target: PI3K alpha (Homo sapiens (Human), UniProt P42336); test: Enzymatic PI3K alpha isoform inhibition (lipid kinase activity, Kinase-Glo luminescence); assay type: biochemical; details: Enzymatic assay
Method in brief: as §1

PI3K alpha, sequence (P42336 other isoform, or with tags, fused parts or gaps): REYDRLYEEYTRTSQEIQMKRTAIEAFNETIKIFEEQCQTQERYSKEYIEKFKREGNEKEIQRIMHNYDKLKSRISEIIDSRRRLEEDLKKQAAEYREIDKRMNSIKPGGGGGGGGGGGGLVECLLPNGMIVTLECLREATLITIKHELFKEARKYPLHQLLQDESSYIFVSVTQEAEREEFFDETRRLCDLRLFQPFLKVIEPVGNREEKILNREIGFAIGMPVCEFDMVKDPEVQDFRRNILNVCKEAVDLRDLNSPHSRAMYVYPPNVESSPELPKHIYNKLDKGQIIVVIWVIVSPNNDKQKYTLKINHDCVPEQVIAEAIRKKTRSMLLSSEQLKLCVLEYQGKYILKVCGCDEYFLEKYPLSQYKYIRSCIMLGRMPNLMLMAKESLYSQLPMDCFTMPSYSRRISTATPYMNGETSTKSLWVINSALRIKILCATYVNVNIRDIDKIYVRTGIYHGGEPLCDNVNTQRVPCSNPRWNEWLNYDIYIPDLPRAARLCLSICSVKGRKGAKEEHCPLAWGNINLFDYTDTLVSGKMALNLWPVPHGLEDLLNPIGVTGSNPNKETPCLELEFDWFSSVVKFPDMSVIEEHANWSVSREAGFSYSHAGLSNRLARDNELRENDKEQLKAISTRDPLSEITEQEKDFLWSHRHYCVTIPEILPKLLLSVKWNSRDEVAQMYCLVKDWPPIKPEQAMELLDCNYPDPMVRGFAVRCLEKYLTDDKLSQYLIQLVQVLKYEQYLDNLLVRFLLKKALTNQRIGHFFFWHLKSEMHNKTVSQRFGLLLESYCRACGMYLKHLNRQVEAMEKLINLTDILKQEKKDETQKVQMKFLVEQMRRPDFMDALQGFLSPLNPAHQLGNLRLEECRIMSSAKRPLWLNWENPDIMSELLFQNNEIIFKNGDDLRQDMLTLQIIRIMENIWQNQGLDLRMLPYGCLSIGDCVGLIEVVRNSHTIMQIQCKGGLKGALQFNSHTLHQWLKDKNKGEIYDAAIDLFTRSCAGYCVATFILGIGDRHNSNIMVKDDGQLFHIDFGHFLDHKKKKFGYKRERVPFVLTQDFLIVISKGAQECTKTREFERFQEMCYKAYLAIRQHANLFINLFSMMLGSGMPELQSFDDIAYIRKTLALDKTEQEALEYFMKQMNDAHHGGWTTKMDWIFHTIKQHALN
PI3K delta, sequence (O00329 other isoform, or with tags, fused parts or gaps linker GGGGGG): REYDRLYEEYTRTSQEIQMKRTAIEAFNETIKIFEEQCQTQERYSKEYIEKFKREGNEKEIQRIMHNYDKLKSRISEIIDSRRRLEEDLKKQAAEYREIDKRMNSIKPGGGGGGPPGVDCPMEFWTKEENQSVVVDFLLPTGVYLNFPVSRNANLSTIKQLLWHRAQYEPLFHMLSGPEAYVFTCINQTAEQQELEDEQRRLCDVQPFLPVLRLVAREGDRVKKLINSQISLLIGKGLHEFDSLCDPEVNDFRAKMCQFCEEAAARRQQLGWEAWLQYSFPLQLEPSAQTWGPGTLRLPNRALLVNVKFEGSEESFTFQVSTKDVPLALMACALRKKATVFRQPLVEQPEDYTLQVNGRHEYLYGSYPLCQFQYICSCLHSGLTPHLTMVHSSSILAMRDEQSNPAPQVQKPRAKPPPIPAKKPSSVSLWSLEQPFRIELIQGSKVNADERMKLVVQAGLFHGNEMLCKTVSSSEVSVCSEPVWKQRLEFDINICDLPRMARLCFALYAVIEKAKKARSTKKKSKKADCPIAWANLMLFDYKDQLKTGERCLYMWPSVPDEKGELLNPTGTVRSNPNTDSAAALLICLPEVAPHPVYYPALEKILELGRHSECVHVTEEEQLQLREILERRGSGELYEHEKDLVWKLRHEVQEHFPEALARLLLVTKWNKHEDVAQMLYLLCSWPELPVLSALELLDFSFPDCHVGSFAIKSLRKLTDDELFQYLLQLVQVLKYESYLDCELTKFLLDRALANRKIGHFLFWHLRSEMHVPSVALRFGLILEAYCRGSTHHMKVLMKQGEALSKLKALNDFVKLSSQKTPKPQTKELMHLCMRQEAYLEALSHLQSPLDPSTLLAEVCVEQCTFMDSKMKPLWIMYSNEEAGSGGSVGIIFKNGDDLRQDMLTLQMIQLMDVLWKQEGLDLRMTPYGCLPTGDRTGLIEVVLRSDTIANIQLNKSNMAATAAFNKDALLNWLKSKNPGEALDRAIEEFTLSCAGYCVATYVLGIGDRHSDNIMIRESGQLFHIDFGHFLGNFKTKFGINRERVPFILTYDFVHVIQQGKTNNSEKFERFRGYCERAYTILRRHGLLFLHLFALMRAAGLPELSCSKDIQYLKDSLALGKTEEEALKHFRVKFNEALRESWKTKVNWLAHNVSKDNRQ

Row | IC50 [1] [nM] | IC50 [2] [nM] | SMILES
1 | < 3 | 142 | COCC(=O)N1CC[C@H](Oc2ccc3c(c2)N(c2cnc(OC)c(C#N)c2)CCO3)C1 [Example D12, 2-Methoxy-5-{6-[(S)-1-(2-methoxy-acetyl)-pyrrolidin-3-yloxy]-2,3-dihydro-benzo[1,4]oxazin-4-yl}-nicotinonitrile]
2 | 88 | 6020 | CCC(=O)N1CC[C@H](Oc2ccc3c(c2)N(c2ccc(OC)c(S(=O)(=O)NOC)c2)CCO3)C1 [Example A31, 2,N-Dimethoxy-5-[6-((S)-1-propionyl-pyrrolidin-3-yloxy)-2,3-dihydro-benzo[1,4]oxazin-4-yl]-benzenesulfonamide]
3 | 317 | 6880 | CCC(=O)N1CC[C@H](Oc2ccc3c(c2)N(c2ccc(C)c(S(=O)(=O)N4CCCCC4)c2)CCO3)C1 [Example A24, 1-((S)-3-{4-[4-Methyl-3-(piperidine-1-sulfonyl)-phenyl]-3,4-dihydro-2H-benzo[1,4]oxazin-6-yloxy}-pyrrolidin-1-yl)-propan-1-one]
4 | 7 | 109 | COc1cc(N2CCOc3ccc(O[C@H]4CCN(C(=O)c5cn(C)cn5)C4)cc32)cnc1OC [Example B48, {(S)-3-[4-(5,6-Dimethoxy-pyridin-3-yl)-3,4-dihydro-2H-benzo[1,4]oxazin-6-yloxy]-pyrrolidin-1-yl}-(1-methyl-1H-imidazol-4-yl)-methanone]
5 | 14 | 410 | CCC(=O)N1CC[C@H](Oc2ccc3c(c2)N(c2cnc(OC)c(C#N)c2)CCO3)C1 [Example A9, 2-Methoxy-5-[6-((S)-1-propionyl-pyrrolidin-3-yloxy)-2,3-dihydro-benzo[1,4]oxazin-4-yl]-nicotinonitrile]
6 | 30 | 1770 | Cc1cc(N2CCOc3ccc(O[C@H]4CCN(C(=O)C5CCS(=O)(=O)CC5)C4)cc32)cnc1OC(F)F [Example B73, {(S)-3-[4-(6-Difluoromethoxy-5-methyl-pyridin-3-yl)-3,4-dihydro-2H-benzo[1,4]oxazin-6-yloxy]-pyrrolidin-1-yl}-(1,1-dioxo-hexahydro-6-thiopyran-4-yl)-methanone]
7 | < 3 | 414 | COc1ncc(N2CCOc3ccc(O[C@H]4CCN(C(=O)C5CCC(OC)CC5)C4)cc32)cc1C#N (single isomer, unassigned) [Example D35]
8 | 42 | 2730 | CCC(=O)N1CC[C@H](Oc2ccc3c(c2)N(c2ccc(OC)c(S(=O)(=O)N(C)OC)c2)CCO3)C1 [Example A29, 2,N-Dimethoxy-N-methyl-5-[6-((S)-1-propionyl-pyrrolidin-3-yloxy)-2,3-dihydro-benzo[1,4]oxazin-4-yl]-benzenesulfonamide]
9 | 64 | 343 | CCC(=O)N1CC[C@H](Oc2ccc3c(c2)N(c2cncc(C(F)(F)F)c2)CCO3)C1 [Example A38, 1-{(S)-3-[4-(5-Trifluoromethyl-pyridin-3-yl)-3,4-dihydro-2H-benzo[1,4]oxazin-6-yloxy]-pyrrolidin-1-yl}-propan-1-one]
10 | 2690 | > 9100 | CCC(=O)N1C[C@H](Oc2ccc3c(c2)N(c2cnc(OC)c(C#N)c2)CCO3)CO1 [Example D25, 2-Methoxy-5-[6-((S)-2-propionyl-isoxazolidin-4-yloxy)-2,3-dihydro-benzo[1,4]oxazin-4-yl]-nicotinonitrile]
11 | 127 | 5150 | COc1ccc(N2CCOc3ccc(O[C@H]4CCN(C(=O)C5CCOCC5)C4)cc32)cn1 [Example D30, {(S)-3-[4-(6-Methoxy-pyridin-3-yl)-3,4-dihydro-2H-benzo[1,4]oxazin-6-yloxy]-pyrrolidin-1-yl}-(tetrahydro-pyran-4-yl)-methanone]
12 | 28 | 1000 | Cc1cc(N2CCOc3ccc(O[C@H]4CCN(C(=O)c5cncnc5)C4)cc32)cnc1S(C)(=O)=O [Example B23, {(S)-3-[4-(6-Methanesulfonyl-5-methyl-pyridin-3-yl)-3,4-dihydro-2H-benzo[1,4]oxazin-6-yloxy]-pyrrolidin-1-yl}-pyrimidin-5-yl-methanone]
13 | 243 | 1220 | COc1ncc(N2CCOc3ccc(O[C@@H]4CCN(C(=O)C5CCOCC5)C4)cc32)cc1C#N [Example C2, 2-Methoxy-5-{6-[(R)-1-(tetrahydro-pyran-4-carbonyl)-pyrrolidin-3-yloxy]-2,3-dihydro-benzo[1,4]oxazin-4-yl}-nicotinonitrile]
14 | 58 | 711 | COc1ncc(N2CCOc3ccc(O[C@H]4CCN(C(=O)C(C)(C)O)C4)cc32)cc1C#N [Example D15, 5-{6-[(S)-1-(2-Hydroxy-2-methyl-propionyl)-pyrrolidin-3-yloxy]-2,3-dihydro-benzo[1,4]oxazin-4-yl}-2-methoxy-nicotinonitrile]
15 | 22 | 133 | COc1ncc(N2CCOc3cnc(O[C@H]4CCN(C(=O)c5cn(C)cn5)C4)cc32)cc1C(F)(F)F [Example E7, {(S)-3-[1-(6-Methoxy-5-trifluoromethyl-pyridin-3-yl)-2,3-dihydro-1H-pyrido[3,4-b][1,4]oxazin-7-yloxy]-pyrrolidin-1-yl}-(1-methyl-1H-imidazol-4-yl)-methanone]
16 | 36 | 987 | COc1ncc(N2CCOc3ccc(O[C@H]4CCN(C(=O)[C@H]5CCNC5)C4)cc32)cc1C#N [Example D39, 2-methoxy-5-{6-[(S)-1-((S)-pyrrolidine-3-carbonyl)-pyrrolidin-3-yloxy]-2,3-dihydro-benzo[1,4]oxazin-4-yl}-nicotinonitrile]
17 | 5 | 250 | COc1ncc(N2CCOc3ccc(O[C@H]4CCN(C(=O)c5cncs5)C4)cc32)cc1C#N [Example C14, 2-Methoxy-5-{6-[(S)-1-(thiazole-5-carbonyl)-pyrrolidin-3-yloxy]-2,3-dihydro-benzo[1,4]oxazin-4-yl}-nicotinonitrile]
18 | 65 | 998 | COc1ncc(N2CCOc3ccc(O[C@H]4CCN(C(=O)[C@H]5CCN(C(C)=O)C5)C4)cc32)cc1C#N [J, 5-{6-[(S)-1-((S)-1-Acetyl-pyrrolidine-3-carbonyl)-pyrrolidin-3-yloxy]-2,3-dihydro-benzo[1,4]-oxazin-4-yl}-2-methoxy-nicotinonitrile]
19 | 3 | 661 | CS(=O)(=O)c1ncc(N2CCOc3ccc(O[C@H]4CCN(C(=O)C5CCOCC5)C4)cc32)cc1Cl [Example B79, {(S)-3-[4-(5-Chloro-6-methanesulfonyl-pyridin-3-yl)-3,4-dihydro-2H-benzo[1,4]oxazin-6-yloxy]-pyrrolidin-1-yl}-(tetrahydro-pyran-4-yl)-methanone]
20 | 13 | 538 | COc1ncc(N2CCOc3ccc(O[C@H]4CCN(C(=O)[C@@H]5CCN(C)C5)C4)cc32)cc1C#N [L, 2-Methoxy-5-{6-[(S)-1-((R)-1-methyl-pyrrolidine-3-carbonyl)-pyrrolidin-3-yloxy]-2,3-dihydro-benzo[1,4]oxazin-4-yl}-nicotinonitrile]
21 | 30 | 1140 | O=C(C1CCOCC1)N1CC[C@H](Oc2ccc3c(c2)N(c2ccc(C(F)(F)F)nc2)CCO3)C1 [Example A42, (Tetrahydro-pyran-4-yl)-{(S)-3-[4-(6-trifluoromethyl-pyridin-3-yl)-3,4-dihydro-2H-benzo[1,4]oxazin-6-yloxy]-pyrrolidin-1-yl}-methanone]
22 | 9 | 773 | O=C(C1CCOCC1)N1CC[C@H](Oc2ccc3c(c2)N(c2cncc(Cl)c2)CCO3)C1 [Example A34, {(S)-3-[4-(5-Chloro-pyridin-3-yl)-3,4-dihydro-2H-benzo[1,4]oxazin-6-yloxy]-pyrrolidin-1-yl}-(tetrahydro-pyran-4-yl)-methanone]
23 | 26 | 380 | COc1ncc(N2CCOc3ccc(O[C@H]4CCN(C(=O)CCS(C)(=O)=O)C4)cc32)cc1F [Example B112, 1-{(S)-3-[4-(5-Fluoro-6-methoxy-pyridin-3-yl)-3,4-dihydro-2H-benzo[1,4]oxazin-6-yloxy]-pyrrolidin-1-yl}-3-methanesulfonyl-propan-1-one]
24 | 5 | 522 | COc1ncc(N2CCOc3ccc(O[C@H]4CCN(C(=O)C5CCCCC5)C4)cc32)cc1C#N [Example D13, 5-[6-((S)-1-Cyclohexanecarbonyl-pyrrolidin-3-yloxy)-2,3-dihydro-benzo[1,4]oxazin-4-yl]-2-methoxy-nicotinonitrile]
25 | 31 | 1920 | N#Cc1cncc(N2CCOc3ccc(O[C@H]4CCN(C(=O)C5CCOCC5)C4)cc32)c1 [Example A7, 5-{6-[(S)-1-(Tetrahydro-pyran-4-carbonyl)-pyrrolidin-3-yloxy]-2,3-dihydro-benzo[1,4]oxazin-4-yl}-nicotinonitrile]

Row | SMILES | IC50 [1] [nM] | IC50 [2] [nM]
26 | COc1ncc(N2CCOc3ccc(O[C@H]4CCN(C(=O)C5CCS(=O)(=O)C5)C4)cc32)cc1C (single isomer, unassigned) [Example B28, (1,1-Dioxo-tetrahydro-1lambda*6*-thiophen-3-yl)-{(S)-3-[4-(6-methoxy-5-methyl-pyridin-3-yl)-3,4-dihydro-2H-benzo[1,4]oxazin-6-yloxy]-pyrrolidin-1-yl}-methanone] | 12 | 788
27 | COc1ncc(N2CCOc3cnc(OC4CCN(C(=O)C5CCS(=O)(=O)CC5)C4)cc32)cc1C (centres unmarked) [Example F12, (1,1-Dioxo-hexahydro-1lambda*6*-thiopyran-4-yl)-{3-[1-(6-methoxy-5-methyl-pyridin-3-yl)-2,3-dihydro-1H-pyrido[3,4-b][1,4]oxazin-7-yloxy]-pyrrolidin-1-yl}-methanone] | < 3 | 440
28 | COc1ncc(N2CC(C)Oc3ccc(O[C@H]4CCN(C(=O)C5CCOCC5)C4)cc32)cc1C#N (stereo partly drawn) [Example O1, 2-Methoxy-5-{2-methyl-6-[(S)-1-(tetrahydro-pyran-4-carbonyl)-pyrrolidin-3-yloxy]-2,3-dihydro-benzo[1,4]oxazin-4-yl}-nicotinonitrile] | 53 | 4570
